Source: US20240002437A1, “COMPOSITIONS AND METHODS OF TREATING INFLAMMATORY LUNG DISEASES” (priority 2020, published 2024)

Legend:
PAEC = assay: Mitochondrial bioenergetics (XF24 Analyzer, OCR) in PAEC; type: cell-based, ovine; settings: PMA
Protocol: (§1) Primary cultures of ovine pulmonary arterial endothelial cells (PAEC) were isolated as described previously (L. K. Kelly, Am J Physiol Lung Cell Mol Physiol, 286(5), L984-91 (2004)). Briefly, cells were maintained in Dulbecco's modified Eagle medium (DMEM) supplemented with 10% fetal calf serum (Hyclone, Logan, UT), antibiotics/antimycotic (500 IU Penicillin, 500 μg/ml Streptomycin, 1.25 μg/ml Amphotericin B; MediaTech, Herndon, VA) at 37° C. in a humidified atmosphere with 5% CO2 and 95% air. Cells were used for experiments between passages 9-14, seeded at ˜50% confluence, and utilized when fully confluent.
The XF24 Analyzer (Seahorse Biosciences) and XF CELL MITO STRESS™ Test Kit (#101706-100; Seahorse Biosciences) were used for the mitochondrial bioenergetic analyses. The optimum number of cells/well was determined to be 75,000/0.32 cm^2. At the end of each study, the XF24 culture microplates were incubated in a CO2-free XF prep station at 37° C. for 45 min to allow temperature and pH calibration. Subsequently, each well was sequentially injected Oligomycin (1 μM final concentration), carbonyl cyanide 4-(trifluoromethoxy) phenylhydrazone (FCCP, 1 μM final concentration), and Rotenone+antimycin A (1 μM final concentration of each) and measured the oxygen consumption rate (OCR). These agents were used to determine basal mitochondrial respiration, reserve respiratory capacity and maximal respiratory capacity measurements in pmols/min of oxygen consumed.

[1] = test system: mitochondrial redistribution of eNOS; assay: Immunofluorescent microscopy of eNOS mitochondrial redistribution in PAEC; type: cell-based, ovine; settings: PMA
Protocol: as §1
PAEC were grown on cover glass for three days after reaching 100% confluence, and fixed with 4% paraformaldehyde (Thermo Fisher Scientific) for 30 min, permeabilized with 100% cold methanol at −20° C. for 5 min Cell then blocked with 1% BSA for 1 hour, and later incubated with first antibody overnight at 4° C. then secondary antibody at room temperature for 1 hour. Finally, cells were mounted on microscope slides using ProLong Glass Antifade Mountant, (Invitrogen, Carlsbad, CA, Cat #P36980). […] The images were analyzed with ImagePro Plus 7.0 (W. Casavan, Microscopy Today, 11(6), 48-50 (2003)) or ImageJ software to evaluate the colocalization of fluorescent.

NOS-derived superoxide = NOS-derived superoxide by EPR (eNOS uncoupling) in PAEC; type: cell-based, ovine; settings: PMA
Protocol: as §1
Superoxide levels were estimated by electron paramagnetic resonance (EPR) assay using the spin-trap compound 1-hydroxy-3-methoxycarbonyl-2,2,5,5-tetramethylpyrrolidine HCl (CMH, Axxora) as described previously. Superoxide in PAEC was trapped by incubating PAEC with 20 μl of CMH stock solution (20 mg/ml) for 1 h, followed by trypsinization and centrifugation at 500 g. The cell pellet was suspended in 35 μl DPBS and loaded into a capillary tube which was then analyzed with a MiniScope MS200 EPR machine (Magnettech, Berlin, Germany). Pre-incubating cells or tissue with 100 μM ethylisothiourea (ETU, Sigma-Aldrich) for 30 min followed by incubation with CMH measured NOS-derived superoxide. EPR spectra were analyzed using ANALYSIS v.2.02 software (Magnettech). Differences between levels of samples incubated in the presence and absence of ETU were used to determine NOS-dependent superoxide generation.

[2] = test system: eNOS phosphorylation at T495; assay: Western blot of pT495-eNOS in PAEC; type: cell-based, ovine; settings: PMA 100 nM, 10, 30 and 60 minutes
Protocol: as §1
Protein extracts were prepared using lysis buffer (50 mM Tris-HCl, pH 7.6, 0.5% Triton X-100, 20% glycerol) containing HALT™ protease inhibitor cocktail (Pierce Laboratories, Rockford, IL). The extracts were then subjected to centrifugation (15,000 g for 15 min at 4° C.). Supernatant fractions were assayed for protein concentration using the Bradford reagent (Bio-Rad, Richmond, CA) then used for Western blot analyses. Protein extracts (25-50 μg) were separated on Long-Life 4-20% Tris-SDS-Hepes gels and electrophoretically transferred to IMMUNO-BLOT™ PVDF membrane (Bio-Rad Laboratories, Hercules, CA) Immunoblotting was then carried out using the appropriate antibodies in Tris-base buffered saline with 0.1% Tween 20 and 5% nonfat milk. After washing, the membranes were probed with horseradish peroxidase-conjugated goat antiserum to rabbit or mouse. Reactive bands were visualized using chemiluminescence (Super Signal West Femto; Pierce, Rockford, IL) on a LI-COR Odyssey image station (Lincoln, NE). Bands were quantified using LI-COR Image Station software. Loading was normalized by reprobing the membranes with an antibody specific to β-actin.

TRPV4 = target: T1, TRPV4 (Mus musculus, UniProt Q9EPK8); settings: mice treated with the TRPV4 antagonist; literature (Yin 2016); only protective if given preventatively; cited from earlier work
T1 construct: host or cells: mice (lung), cited studies
T1 sequence (Q9EPK8 whole entry): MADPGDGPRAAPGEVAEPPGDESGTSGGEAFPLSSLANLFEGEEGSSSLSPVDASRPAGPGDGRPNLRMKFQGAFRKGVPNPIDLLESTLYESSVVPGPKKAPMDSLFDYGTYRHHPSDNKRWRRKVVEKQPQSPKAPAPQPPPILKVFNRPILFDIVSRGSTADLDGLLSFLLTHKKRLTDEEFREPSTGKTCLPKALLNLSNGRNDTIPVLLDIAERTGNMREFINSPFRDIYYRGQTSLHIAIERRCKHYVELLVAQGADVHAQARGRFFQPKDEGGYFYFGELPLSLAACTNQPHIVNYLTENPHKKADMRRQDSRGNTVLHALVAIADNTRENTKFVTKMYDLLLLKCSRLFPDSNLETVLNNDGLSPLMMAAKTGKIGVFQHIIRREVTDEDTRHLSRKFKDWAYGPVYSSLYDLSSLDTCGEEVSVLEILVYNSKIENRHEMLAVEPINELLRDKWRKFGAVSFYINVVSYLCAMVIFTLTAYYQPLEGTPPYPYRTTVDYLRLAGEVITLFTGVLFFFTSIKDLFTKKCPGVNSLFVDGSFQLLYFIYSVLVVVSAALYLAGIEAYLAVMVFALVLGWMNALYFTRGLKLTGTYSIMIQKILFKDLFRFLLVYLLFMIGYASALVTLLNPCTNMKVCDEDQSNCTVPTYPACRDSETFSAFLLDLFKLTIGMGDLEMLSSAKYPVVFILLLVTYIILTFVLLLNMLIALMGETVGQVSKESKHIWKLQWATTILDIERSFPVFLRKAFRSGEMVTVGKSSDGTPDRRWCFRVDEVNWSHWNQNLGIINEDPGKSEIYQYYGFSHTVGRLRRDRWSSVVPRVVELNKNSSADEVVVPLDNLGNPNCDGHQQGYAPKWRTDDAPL

Compound | mitochondrial bioenergetics (OCR, reserve and maximal respiratory capacities) (PAEC) | mitochondrial redistribution of eNOS [1] | eNOS uncoupling (NOS derived superoxide) (NOS-derived superoxide) | pT495-eNOS levels [2] | protection against acid-induced ALI (TRPV4)
CCCCCCCCCCCCCC(=O)O[C@@H]1[C@@H](C)[C@@]2(O)[C@@H](C=C(CO)C[C@]3(O)C(=O)C(C)=C[C@@H]23)[C@@H]2C(C)(C)[C@]12OC(C)=O [PMA, Phorbol 12-myristate 13-acetate] | disruption of mitochondrial bioenergetics | induced the mitochondrial redistribution of eNOS | eNOS uncoupling | increases in pT95-eNOS levels | –
O=C(NC1(c2ccccc2)CC1)c1c(CN2CCC(N3CCCCC3)CC2)c(-c2cccc(C(F)(F)F)c2)nc2cc(Br)ccc12 [GSK2193874] | – | – | – | – | protected against acid-induced ALI
